According to publication PMC9814781, “Structure-based design of a dual-warhead covalent inhibitor of FGFR4” (Communications Chemistry, 2022):

Assays:
[1] = molecular target: FLT3 (Homo sapiens, UniProt P36888); test: Kinase selectivity profiling
[2] = molecular target: JAK1 (Homo sapiens, UniProt P23458); test: Kinase selectivity profiling
[3] = molecular target: EGFR (Homo sapiens, UniProt P00533); test: Kinase selectivity profiling
[4] = molecular target: DYRK2 (Homo sapiens, UniProt Q92630); test: Kinase selectivity profiling
[5] = molecular target: FGFR1 (Homo sapiens, UniProt P11362); test: Kinase inhibition assay (ADP-Glo); type: biochemical; set-up: human FGFR1 (residues 456–765); 6xHis + PreScission site (N, cleaved yes); made in house; host or cells: Escherichia coli Rosseta
Protocol: (§1) Wild-type FGFRs and mutant FGFRs were prepared as previously described[25]–[27]. In brief, the kinase domains of human FGFR1 (residues 456–765), FGFR2 (residues 453–770), FGFR3 (residues 450–758), and FGFR4 (residues 445–753) were cloned into a modified pET28a expression vector and then transfected into Escherichia coli Rosseta cells. The N-terminal of the recombinant proteins were contained a 6xHis tag followed by a PreScission cleavage site for FGFR1, FGFR2, FGFR3, and FGFR4. Site-directed mutagenesis of FGFR4 was generated according to the ClonExpress II One Step Cloning Kit (Vazyme) using the pET28a-FGFR4 plasmid as the template. These mutants were confirmed by DNA sequencing (Tsingke, Changsha, China). For crystallization experiments, the wild-type FGFR4 plasmid was co-expressed with untagged YOPH to obtain non-phosphorylated proteins. The proteins were first purified by Ni-NTA affinity chromatography. […]
(§2) All kinase inhibition assays were performed with optimized kinase assay buffer consisting of 40 mM Tris-HCl pH 7.5, 20 mM MgCl2, 20 mM NaCl, 0.1 mg/mL BSA, 1 mM TCEP, and 4% DMSO. […] Fluorescence was measured on a multimode plate reader (Perkin-Elmer) using a chemiluminescence program after the addition of the detection reagent. IC50 values were determined using a three-parameter log [Inhibitor] versus response model in GraphPad Prism software.

[6] = molecular target: RET (Homo sapiens, UniProt P07949); test: Kinase selectivity profiling
[7] = molecular target: PIK3CD/PIK3R1 (Homo sapiens, UniProt O00329); test: Kinase selectivity profiling
[8] = molecular target: TSSK1 (Homo sapiens, UniProt Q9BXA7); test: Kinase selectivity profiling
[9] = molecular target: T1, FGFR2 (Homo sapiens, UniProt P21802); test: Kinase selectivity profiling
Target sequence in this assay (P21802 22-821): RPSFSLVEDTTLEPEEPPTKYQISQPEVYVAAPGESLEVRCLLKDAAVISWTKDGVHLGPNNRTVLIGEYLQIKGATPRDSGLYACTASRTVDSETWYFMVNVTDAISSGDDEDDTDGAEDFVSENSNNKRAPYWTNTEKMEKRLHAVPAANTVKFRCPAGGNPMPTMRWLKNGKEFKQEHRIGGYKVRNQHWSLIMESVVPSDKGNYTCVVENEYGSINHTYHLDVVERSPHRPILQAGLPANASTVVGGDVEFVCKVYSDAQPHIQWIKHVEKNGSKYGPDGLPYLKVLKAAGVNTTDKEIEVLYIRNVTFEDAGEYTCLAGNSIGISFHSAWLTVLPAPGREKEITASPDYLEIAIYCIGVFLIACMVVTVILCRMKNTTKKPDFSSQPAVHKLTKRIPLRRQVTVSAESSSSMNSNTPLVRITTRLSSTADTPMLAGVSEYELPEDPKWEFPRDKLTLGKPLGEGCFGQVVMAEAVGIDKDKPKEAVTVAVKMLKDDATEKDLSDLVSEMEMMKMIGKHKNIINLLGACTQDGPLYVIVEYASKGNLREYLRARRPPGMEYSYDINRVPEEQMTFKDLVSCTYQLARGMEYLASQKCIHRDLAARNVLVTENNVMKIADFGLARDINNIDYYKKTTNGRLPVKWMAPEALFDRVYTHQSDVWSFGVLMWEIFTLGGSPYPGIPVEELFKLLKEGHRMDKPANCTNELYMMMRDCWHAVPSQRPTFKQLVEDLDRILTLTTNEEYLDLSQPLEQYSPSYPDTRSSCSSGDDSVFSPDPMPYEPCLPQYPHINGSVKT

[10] = molecular target: FLT1 (VEGFR1) (Homo sapiens, UniProt P17948); test: Kinase selectivity profiling
[11] = molecular target: Erk5 (Homo sapiens, UniProt Q13164); test: Kinase selectivity profiling
[12] = molecular target: AurC (Homo sapiens, UniProt Q9UQB9); test: Kinase selectivity profiling
[13] = molecular target: PLK1 (Homo sapiens, UniProt P53350); test: Kinase selectivity profiling
[14] = molecular target: NPM1-ALK (Homo sapiens, UniProt P06748+Q9UM73); test: Kinase selectivity profiling
[15] = molecular target: CDK5/p35NCK (Homo sapiens, UniProt Q00535); test: Kinase selectivity profiling
[16] = molecular target: T1, FGFR2; test: Kinase inhibition assay (ADP-Glo); type: biochemical; set-up: FGFR2 (residues 453–770); 6xHis + PreScission site (N, cleaved yes); made in house; host or cells: Escherichia coli Rosseta
Protocol: as §1, §2
Target sequence in this assay (P21802 453-770): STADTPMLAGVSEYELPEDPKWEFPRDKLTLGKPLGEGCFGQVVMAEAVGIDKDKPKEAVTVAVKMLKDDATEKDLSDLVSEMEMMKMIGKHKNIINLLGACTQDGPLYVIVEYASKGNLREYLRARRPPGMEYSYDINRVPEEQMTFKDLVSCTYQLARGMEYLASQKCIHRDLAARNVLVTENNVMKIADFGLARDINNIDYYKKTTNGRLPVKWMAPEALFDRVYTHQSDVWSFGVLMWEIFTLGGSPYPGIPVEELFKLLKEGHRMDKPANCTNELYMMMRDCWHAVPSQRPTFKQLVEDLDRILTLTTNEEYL

[17] = molecular target: FRK (Homo sapiens, UniProt P42685); test: Kinase selectivity profiling
[18] = molecular target: CLK3 (Homo sapiens, UniProt P49761); test: Kinase selectivity profiling
[19] = molecular target: T2, DYRK4 (Homo sapiens, UniProt Q9NR20); test: Kinase selectivity profiling; type: biochemical; settings: DYRK4, 1000 nM
T2 construct: purchased ICE Bioscience

[20] = molecular target: CDK18/CycY (Homo sapiens, UniProt Q07002); test: Kinase selectivity profiling
[21] = molecular target: PYK2 (Homo sapiens, UniProt Q14289); test: Kinase selectivity profiling
[22] = molecular target: EPHB1 (Homo sapiens, UniProt P54762); test: Kinase selectivity profiling
[23] = molecular target: IGF1R (Homo sapiens, UniProt P08069); test: Kinase selectivity profiling
[24] = molecular target: ZAP70 (Homo sapiens, UniProt P43403); test: Kinase selectivity profiling
[25] = molecular target: TNIK (Homo sapiens, UniProt Q9UKE5); test: Kinase selectivity profiling
[26] = molecular target: BRAF[V600E] (Homo sapiens, UniProt P15056, V600E); test: Kinase selectivity profiling

Chain of JAK1 (P23458 whole entry): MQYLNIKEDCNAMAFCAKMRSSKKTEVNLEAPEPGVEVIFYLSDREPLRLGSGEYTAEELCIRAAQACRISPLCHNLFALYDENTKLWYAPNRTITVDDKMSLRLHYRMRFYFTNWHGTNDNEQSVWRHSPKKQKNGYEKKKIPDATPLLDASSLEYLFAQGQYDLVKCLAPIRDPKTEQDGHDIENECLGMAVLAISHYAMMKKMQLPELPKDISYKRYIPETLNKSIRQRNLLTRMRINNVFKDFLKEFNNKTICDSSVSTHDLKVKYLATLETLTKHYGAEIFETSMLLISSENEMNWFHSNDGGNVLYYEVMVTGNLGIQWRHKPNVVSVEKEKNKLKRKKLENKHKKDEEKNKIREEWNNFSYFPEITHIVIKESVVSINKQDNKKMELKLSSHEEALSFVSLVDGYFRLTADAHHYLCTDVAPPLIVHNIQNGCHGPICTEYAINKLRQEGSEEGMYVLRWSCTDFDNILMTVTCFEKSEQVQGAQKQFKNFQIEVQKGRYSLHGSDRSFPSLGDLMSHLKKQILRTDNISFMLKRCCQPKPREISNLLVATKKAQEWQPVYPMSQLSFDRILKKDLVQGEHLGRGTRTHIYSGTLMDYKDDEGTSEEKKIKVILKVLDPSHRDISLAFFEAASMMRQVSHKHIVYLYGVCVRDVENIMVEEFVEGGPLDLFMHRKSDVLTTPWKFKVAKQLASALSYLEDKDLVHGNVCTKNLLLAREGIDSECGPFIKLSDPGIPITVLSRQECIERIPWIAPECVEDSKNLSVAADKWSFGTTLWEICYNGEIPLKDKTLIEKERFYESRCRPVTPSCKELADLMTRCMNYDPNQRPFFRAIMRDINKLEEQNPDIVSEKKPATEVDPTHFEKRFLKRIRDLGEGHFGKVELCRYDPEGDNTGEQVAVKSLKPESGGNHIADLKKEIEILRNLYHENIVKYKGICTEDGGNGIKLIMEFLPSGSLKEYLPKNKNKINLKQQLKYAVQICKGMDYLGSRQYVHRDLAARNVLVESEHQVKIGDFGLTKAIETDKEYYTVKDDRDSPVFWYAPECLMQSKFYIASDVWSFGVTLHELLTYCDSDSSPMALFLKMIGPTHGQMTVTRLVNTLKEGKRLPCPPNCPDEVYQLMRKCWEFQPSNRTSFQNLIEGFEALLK
Chain of PIK3CD/PIK3R1 (O00329 whole entry): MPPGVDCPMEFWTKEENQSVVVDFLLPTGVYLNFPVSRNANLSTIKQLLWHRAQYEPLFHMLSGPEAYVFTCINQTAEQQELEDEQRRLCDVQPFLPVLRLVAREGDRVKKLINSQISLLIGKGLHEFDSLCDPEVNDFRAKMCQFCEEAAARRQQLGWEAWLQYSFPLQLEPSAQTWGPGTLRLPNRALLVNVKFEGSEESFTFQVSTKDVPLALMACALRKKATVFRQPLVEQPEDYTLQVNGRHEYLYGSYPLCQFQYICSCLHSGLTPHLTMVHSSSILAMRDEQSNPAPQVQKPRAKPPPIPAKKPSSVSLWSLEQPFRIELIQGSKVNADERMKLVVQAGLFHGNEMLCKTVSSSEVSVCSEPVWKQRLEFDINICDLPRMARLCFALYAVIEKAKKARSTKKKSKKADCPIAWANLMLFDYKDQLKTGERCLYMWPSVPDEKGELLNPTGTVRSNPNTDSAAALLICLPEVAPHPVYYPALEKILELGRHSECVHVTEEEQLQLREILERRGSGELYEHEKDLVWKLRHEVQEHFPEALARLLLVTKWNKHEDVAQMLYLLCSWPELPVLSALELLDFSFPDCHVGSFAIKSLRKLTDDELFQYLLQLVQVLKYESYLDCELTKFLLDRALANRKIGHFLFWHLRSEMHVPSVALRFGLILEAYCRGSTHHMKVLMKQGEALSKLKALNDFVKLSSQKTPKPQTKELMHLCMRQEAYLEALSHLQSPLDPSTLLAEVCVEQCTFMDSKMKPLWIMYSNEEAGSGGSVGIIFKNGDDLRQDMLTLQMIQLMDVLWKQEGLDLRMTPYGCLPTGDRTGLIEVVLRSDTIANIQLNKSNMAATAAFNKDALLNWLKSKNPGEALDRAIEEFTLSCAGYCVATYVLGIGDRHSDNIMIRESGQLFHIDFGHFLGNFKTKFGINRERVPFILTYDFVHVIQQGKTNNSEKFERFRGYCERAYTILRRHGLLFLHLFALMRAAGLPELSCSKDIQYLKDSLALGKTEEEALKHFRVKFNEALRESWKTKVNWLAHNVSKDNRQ
Chain of PIK3CD/PIK3R1 (P27986 whole entry partner): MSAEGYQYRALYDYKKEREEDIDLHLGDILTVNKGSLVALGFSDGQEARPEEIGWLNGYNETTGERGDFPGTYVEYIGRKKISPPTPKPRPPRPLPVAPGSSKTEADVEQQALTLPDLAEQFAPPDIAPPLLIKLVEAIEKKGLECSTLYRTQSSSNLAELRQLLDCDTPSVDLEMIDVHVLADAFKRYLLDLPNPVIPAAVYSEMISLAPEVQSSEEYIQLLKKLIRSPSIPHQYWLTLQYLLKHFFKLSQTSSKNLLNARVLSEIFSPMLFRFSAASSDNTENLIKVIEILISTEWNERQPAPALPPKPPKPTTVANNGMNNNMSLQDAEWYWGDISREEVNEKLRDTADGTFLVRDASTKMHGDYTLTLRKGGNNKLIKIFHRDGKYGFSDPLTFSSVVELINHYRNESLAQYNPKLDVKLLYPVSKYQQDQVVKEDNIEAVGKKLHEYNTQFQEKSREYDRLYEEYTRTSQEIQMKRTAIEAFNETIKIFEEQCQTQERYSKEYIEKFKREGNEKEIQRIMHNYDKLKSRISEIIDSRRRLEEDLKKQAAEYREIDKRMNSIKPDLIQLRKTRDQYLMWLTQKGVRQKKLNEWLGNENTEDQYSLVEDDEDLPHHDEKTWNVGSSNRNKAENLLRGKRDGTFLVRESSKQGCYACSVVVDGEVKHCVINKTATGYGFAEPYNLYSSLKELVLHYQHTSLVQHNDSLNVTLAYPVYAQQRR
Chain of Erk5 (Q13164 whole entry): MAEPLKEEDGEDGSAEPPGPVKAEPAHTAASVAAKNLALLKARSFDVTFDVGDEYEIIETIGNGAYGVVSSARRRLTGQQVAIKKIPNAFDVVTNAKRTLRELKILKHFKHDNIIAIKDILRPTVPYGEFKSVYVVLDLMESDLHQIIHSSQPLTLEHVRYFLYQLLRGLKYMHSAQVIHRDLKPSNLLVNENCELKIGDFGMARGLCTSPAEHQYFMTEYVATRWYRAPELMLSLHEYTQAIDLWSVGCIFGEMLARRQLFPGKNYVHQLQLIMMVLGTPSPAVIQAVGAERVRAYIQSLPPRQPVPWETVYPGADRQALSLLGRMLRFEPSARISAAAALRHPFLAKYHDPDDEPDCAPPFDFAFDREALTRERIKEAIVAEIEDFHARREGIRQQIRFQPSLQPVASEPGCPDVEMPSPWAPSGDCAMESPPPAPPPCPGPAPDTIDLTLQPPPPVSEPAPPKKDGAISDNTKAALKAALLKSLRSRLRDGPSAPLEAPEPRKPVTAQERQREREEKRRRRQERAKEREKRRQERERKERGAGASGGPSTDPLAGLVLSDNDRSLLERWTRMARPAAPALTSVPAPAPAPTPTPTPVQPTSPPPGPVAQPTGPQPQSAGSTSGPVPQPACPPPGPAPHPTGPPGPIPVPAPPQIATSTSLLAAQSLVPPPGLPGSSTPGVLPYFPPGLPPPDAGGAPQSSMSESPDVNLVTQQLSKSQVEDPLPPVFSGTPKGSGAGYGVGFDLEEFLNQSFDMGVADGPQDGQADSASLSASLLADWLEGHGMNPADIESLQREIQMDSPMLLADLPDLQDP

C=CC(=O)Nc1ccccc1Nc1ncc2c(n1)N(CCCN1CCN(C(=O)C=C)CC1)C(=O)N(c1cc(OC)cc(OC)c1)C2 [CXF-009]
inhibition at 1 µM [1]: -1.11%
inhibition at 1 µM [2]: -12.3%
inhibition at 1 µM [3]: -16.3%
inhibition at 1 µM [4]: 0.38%
IC50 [5]: 2580 nM
inhibition at 1 µM [6]: 1.72%
inhibition at 1 µM [7]: -44.4%
inhibition at 1 µM [8]: 30%
inhibition at 1 µM [9]: 0.27%
inhibition at 1 µM [10]: 5.91%
inhibition at 1 µM [11]: 14%
inhibition at 1 µM [12]: 2.77%
inhibition at 1 µM [13]: 0.59%
inhibition at 1 µM [14]: 0.37%
inhibition at 1 µM [15]: -0.87%
IC50 [16]: 2410 nM
inhibition at 1 µM [17]: -0.22%
inhibition at 1 µM [18]: -0.52%
inhibition at 1 µM [19]: 1.84%
inhibition at 1 µM [20]: -3.74%
inhibition at 1 µM [21]: 2.11%
inhibition at 1 µM [22]: -1.49%
inhibition at 1 µM [23]: -2.13%
inhibition at 1 µM [24]: 11.8%
inhibition at 1 µM [25]: -13.4%
inhibition at 1 µM [26]: -1.68%
